Experiments:
GAK = details: at 10 μM; cited from earlier work
phospho-AP2M1 (T156) = format: cell-based
DENV [1] = format: cell-based; details: BIKE-inducible T-REx-293 cells, doxycycline induction, 72 hours treatment
[2] = test system: primary human monocyte derived dendritic cells (MDDC)
DENV [3] = format: cell-based, dengue virus; details: read-out: EC50, DENV infection in MDDC
VEEV (TC-83) = format: cell-based, Venezuelan equine encephalitis virus; details: read-out: EC50, VEEV (TC-83) infection
AAK1 = details: at 10 μM; cited from earlier work
TAK1 = details: read-out: IC50, TAK1; cited from earlier work
DENV2 [4] = format: cell-based, dengue virus; details: read-out: EC50, DENV2 infection
ERK2 = details: read-out: IC50, ERK2; cited from earlier work
BIKE = details: cited from earlier work
EBOV = format: cell-based, Ebola virus; details: read-out: EC50, EBOV infection
DENV2 [5] = format: cell-based, dengue virus

SMILES	KINOMEscan binding, GAK (GAK)	effect on AP2M1 phosphorylation (phospho-AP2M1 (T156))	effect on phospho-AP2M1 level at 10 μM (phospho-AP2M1 (T156))	DENV infection upon BIKE expression in drug-treated cells (DENV [1])	CC50 [2] [nM]	EC50 (DENV [3]) [nM]	cellular toxicity in the EBOV assay (Huh7 cells)	EC50 (VEEV (TC-83)) [nM]	KINOMEscan binding, AAK1 (AAK1)	IC50 (TAK1) [nM]	EC50 (DENV2 [4]) [nM]	IC50 (ERK2) [nM]	KINOMEscan binding, BIKE (BIKE; at 10 μM)	IC50 (BIKE; read-out: IC50 value for BIKE inhibition or binding (Discussion)) [nM]	EC50 (EBOV) [nM]	effect on viral infection at 6 hours postinfection (DENV2 [5])
COc1cc(O)c2c(c1)/C=C/C[C@H](O)[C@H](O)C(=O)/C=C\C[C@H](C)OC2=O [5Z-7-oxozeaenol]	10 % of control	dramatic reduction in AP2M1 phosphorylation	significant reduction	partially restored	5490	540	no apparent cellular toxicity within the concentration range tested	2600	13 % of control	8	2470	80	3.8 % of control	3.8	4090	–
C[C@@H]1C[C@@H]([C@H](O)CC2CC(=O)NC(=O)C2)C(=O)[C@@H](C)C1 [cycloheximide]	–	–	–	–	–	–	–	–	–	–	–	–	–	–	–	suppressed viral infection

Source: PMC7879702 (Antiviral research, 2020)
